Results published in patent EP2818471A1, “Nitrogen bicyclic compounds as inhibitors for Scyl1 and Grk5” (Max-Planck-Gesellschaft zur Förderung der Wissenschaften …, priority 2013, dated 2014).

Test system: beta-TC6 cells
Test: Insulin HTRF assay, relative activity Ar normalized to sunitinib
Assay type: cell-based
Settings: Mus musculus, normalized to positive control sunitinib (5 µM = 100%), Table 10
How it was run: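 beta-TC6 cells (15k/well) were seeded for 24 or 48 h, washed and exposed to test compound or sunitinib (5 µM f.c.) in induction buffer with 0.5% DMSO for 2, 3 or 4 h at 37°C. Secreted insulin in the supernatant was measured by two-antibody HTRF after 120 min at RT. Ar = (V − 0% control)/(100% control − 0% control) × 100.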

Structure (SMILES) | Emax [%]
O=C(NC1CCCC1)c1ccc(-c2cn3c(-c4ccc(CO)cc4)cnc3cn2)cc1 [compound 375, N-cyclopentyl-4-[3-[4-(hydroxymethyl)phenyl]imidazo[1,2-a]pyrazin-6-yl]benzamide] | 20 to 50
OCc1cccc(-c2cnc3cnc(-c4ccccc4)cn23)c1 [compound 376, [3-(6-phenylimidazo[1,2-a]pyrazin-3-yl)phenyl]methanol] | 20 to 50
CSc1ccc(-c2cn3c(-c4cccc(CO)c4)cnc3cn2)cc1 [compound 377, [3-[6-(4-methylsulfanylphenyl)imidazo[1,2-a]pyrazin-3-yl]phenyl]methanol] | 20 to 50
CCOc1cccc(-c2cn3c(-c4cccc(CO)c4)cnc3cn2)c1 [compound 378, [3-[6-(3-ethoxyphenyl)imidazo[1,2-a]pyrazin-3-yl]phenyl]methanol] | 20 to 50
OCc1cccc(-c2cnc3cnc(-c4cccs4)cn23)c1 [compound 379, [3-[6-(2-thienyl)imidazo[1,2-a]pyrazin-3-yl]phenyl]methanol] | 20 to 50
CC(C)Oc1cccc(-c2cn3c(-c4cccc(CO)c4)cnc3cn2)c1 [compound 380, [3-[6-(3-isopropoxyphenyl)imidazo[1,2-a]pyrazin-3-yl]phenyl]methanol] | 20 to 50
COc1ccc(-c2cnc3cnc(-c4ccc(N5CCN(C)CC5)cc4)cn23)cn1 [compound 381, 3-(6-methoxy-3-pyridyl)-6-[4-(4-methylpiperazin-1-yl)phenyl]imidazo[1,2-a]pyrazine] | 20 to 50
COc1ccc(-c2cn3c(-c4ccc(OC)nc4)cnc3cn2)cn1 [compound 382, 3,6-bis(6-methoxy-3-pyridyl)imidazo[1,2-a]pyrazine] | 20 to 50
COc1ccc(-c2cnc3cnc(-c4cccc(C(N)=O)c4)cn23)cn1 [compound 383, 3-[3-(6-methoxy-3-pyridyl)imidazo[1,2-a]pyrazin-6-yl]benzamide] | 20 to 50
Nc1cccc(-c2cn3c(-c4cccc(F)c4)cnc3cn2)c1 [compound 384, 3-[3-(3-fluorophenyl)imidazo[1,2-a]pyrazin-6-yl]aniline] | 20 to 50
Fc1cccc(-c2cnc3cnc(-c4ccccc4)cn23)c1 [compound 385, 3-(3-fluorophenyl)-6-phenyl-imidazo[1,2-a]pyrazine] | 20 to 50
Fc1cccc(-c2cnc3cnc(-c4ccc5c(c4)OCO5)cn23)c1 [compound 386, 6-(1,3-benzodioxol-5-yl)-3-(3-fluorophenyl)imidazo[1,2-a]pyrazine] | 20 to 50
Fc1cccc(-c2cnc3cnc(-c4ccc(N5CCNCC5)cc4)cn23)c1 [compound 387, 3-(3-fluorophenyl)-6-(4-piperazin-1-ylphenyl)imidazo[1,2-a]pyrazine] | 10 to 20
Fc1cccc(-c2cnc3cnc(-c4ccc(Cl)cc4)cn23)c1 [compound 388, 6-(4-chlorophenyl)-3-(3-fluorophenyl)imidazo[1,2-a]pyrazine] | 20 to 50
OCc1ccc(-c2cn3c(-c4cccc(F)c4)cnc3cn2)cc1 [compound 389, [4-[3-(3-fluorophenyl)imidazo[1,2-a]pyrazin-6-yl]phenyl]methanol] | 20 to 50
Fc1cccc(-c2cnc3cnc(-c4cccs4)cn23)c1 [compound 390, 3-(3-fluorophenyl)-6-(2-thienyl)imidazo[1,2-a]pyrazine] | 20 to 50
COc1cc(-c2cnc3cnc(-c4ccc(OCCCN(C)C)nc4)cn23)ccc1O [compound 391, 4-[6-[6-[3-(dimethylamino)propoxy]-3-pyridyl]imidazo[1,2-a]pyrazin-3-yl]-2-methoxy-phenol] | 20 to 50

Structure (SMILES) | Emax [%]
COc1cc(-c2cnc3cnc(-c4ccc(NCCN5CCOCC5)nc4)cn23)ccc1O [compound 392, 2-methoxy-4-[6-[6-(2-morpholinoethylamino)-3-pyridyl]imidazo[1,2-a]pyrazin-3-yl]phenol] | 20 to 50
COc1cc(-c2cnc3cnc(-c4ccc(N5CCN(C)CC5)nc4)cn23)ccc1O [compound 393, 2-methoxy-4-[6-[6-(4-methylpiperazin-1-yl)-3-pyridyl]imidazo[1,2-a]pyrazin-3-yl]phenol] | 20 to 50
COc1cc(-c2cnc3cnc(-c4ccc5c(c4)OCO5)cn23)ccc1O [compound 394, 4-[6-(1,3-benzodioxol-5-yl)imidazo[1,2-a]pyrazin-3-yl]-2-methoxy-phenol] | 20 to 50
CCOc1cccc(-c2cn3c(-c4ccc(O)c(OC)c4)cnc3cn2)c1 [compound 395, 4-[6-(3-ethoxyphenyl)imidazo[1,2-a]pyrazin-3-yl]-2-methoxy-phenol] | 50 to 100
COc1cc(-c2cnc3cnc(-c4ccc(N)nc4)cn23)ccc1O [compound 396, 4-[6-(6-amino-3-pyridyl)imidazo[1,2-a]pyrazin-3-yl]-2-methoxy-phenol] | 20 to 50
COc1cc(-c2cnc3cnc(-c4cnn(C)c4)cn23)ccc1O [compound 397, 2-methoxy-4-[6-(1-methylpyrazol-4-yl)imidazo[1,2-a]pyrazin-3-yl]phenol] | 50 to 100
CN(C)CCCNC(=O)c1ccc(-c2cn3c(-c4ccc5c(ccn5C)c4)cnc3cn2)cc1 [compound 398, N-[3-(dimethylamino)propyl]-4-[3-(1-methylindol-5-yl)imidazo[1,2-a]pyrazin-6-yl]benzamide] | 20 to 50
Cn1ccc2cc(-c3cnc4cnc(-c5cccc(C(=O)NCCO)c5)cn34)ccc21 [compound 399, N-(2-hydroxyethyl)-3-[3-(1-methylindol-5-yl)imidazo[1,2-a]pyrazin-6-yl]benzamide] | 20 to 50
COc1cc(-c2cn3c(-c4ccc5c(ccn5C)c4)cnc3cn2)ccc1O [compound 400, 2-methoxy-4-[3-(1-methylindol-5-yl)imidazo[1,2-a]pyrazin-6-yl]phenol] | 20 to 50
Cn1ccc2cc(-c3cnc4cnc(-c5cccc(C(N)=O)c5)cn34)ccc21 [compound 401, 3-[3-(1-methylindol-5-yl)imidazo[1,2-a]pyrazin-6-yl]benzamide] | 20 to 50
CN1CCN(C(=O)c2ccc(-c3cnc4cnc(/C=C/c5ccccc5)cn34)cc2)CC1 [compound 402, (4-methylpiperazin-1-yl)-[4-[6-[(E)-styryl]imidazo[1,2-a]pyrazin-3-yl]phenyl]methanone] | 10 to 20
CS(=O)(=O)Nc1cccc(-c2cn3c(-c4ccc(Oc5ccccc5)cc4)cnc3cn2)c1 [compound 403, N-[3-[3-(4-phenoxyphenyl)imidazo[1,2-a]pyrazin-6-yl]phenyl]methanesulfonamide] | 20 to 50
Cc1ccccc1-c1cnc2cnc(-c3cccc(F)c3)cn12 [compound 404, 6-(3-fluorophenyl)-3-(o-tolyl)imidazo[1,2-a]pyrazine] | 10 to 20
Cc1ccccc1-c1cnc2cnc(-c3cccs3)cn12 [compound 405, 3-(o-tolyl)-6-(2-thienyl)imidazo[1,2-a]pyrazine] | 10 to 20
COc1cc(-c2cn3c(-c4ccccc4Cl)cnc3cn2)ccc1O [compound 406, 4-[3-(2-chlorophenyl)imidazo[1,2-a]pyrazin-6-yl]-2-methoxy-phenol] | 20 to 50
CC(C)(C)c1ccc(-c2cnc3cnc(-c4ccc(N)nc4)cn23)cc1 [compound 408, 5-[3-(4-tert-butylphenyl)imidazo[1,2-a]pyrazin-6-yl]pyridin-2-amine] | 10 to 20
CC(=O)c1cccc(-c2cnc3cnc(-c4cccnc4)cn23)c1 [compound 409, 1-[3-[6-(3-pyridyl)imidazo[1,2-a]pyrazin-3-yl]phenyl]ethanone] | 20 to 50
